Test results reported in patent publication US20250236627A1, “CERTAIN OCTAHYDROFURO[3,4- B]PYRAZINES AS GLP-1 RECEPTOR MODULATORS” (ASTRAZENECA AB, priority 2021, published 2025).

Key:
human GLP-1R receptor = biological target: T1, human GLP-1R receptor (Homo sapiens, UniProt P43220, L260F); experiment: CHOK1 GLP-1R cAMP Assay; assay type: cell-based; settings: CHO-K1 cell line stably expressing human GLP-1R; HTRF cAMP detection
T1 construct: expressed in transfected cells; host or cells: CHO-K1 (ATCC CCL-61)
T1 sequence (P43220 24-463 L260F): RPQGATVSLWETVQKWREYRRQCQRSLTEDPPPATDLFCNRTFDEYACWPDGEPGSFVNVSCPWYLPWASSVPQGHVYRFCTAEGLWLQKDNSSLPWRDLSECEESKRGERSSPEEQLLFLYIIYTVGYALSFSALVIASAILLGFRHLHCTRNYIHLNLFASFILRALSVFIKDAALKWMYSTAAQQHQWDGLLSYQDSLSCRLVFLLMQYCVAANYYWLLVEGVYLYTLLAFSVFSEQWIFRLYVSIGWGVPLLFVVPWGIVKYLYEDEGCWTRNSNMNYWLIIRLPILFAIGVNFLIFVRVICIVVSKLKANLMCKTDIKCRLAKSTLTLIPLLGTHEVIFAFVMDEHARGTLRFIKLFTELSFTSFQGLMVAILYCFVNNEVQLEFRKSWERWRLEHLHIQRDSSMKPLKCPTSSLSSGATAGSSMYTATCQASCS
Procedure, shortened: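 CHO-K1 cells, 800/well, stimulated 20 min at room temperature with compound in HEPES pH 7.4/HBSS/0.1% BSA plus IBMX (1 mM in the added buffer). cAMP measured by HTRF competitive immunoassay after ≥1 h, converted to pM via standard curve. EC50 from 4-parameter logistic fit; % effect relative to saturating GLP1(7-36)NH2.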

[1] = biological target: T2, human phosphodiesterase-3A (Homo sapiens, UniProt Q14432); experiment: PDE3 Assay; assay type: biochemical; settings: human recombinant enzyme expressed in Sf9 cells; formation of 5′AMP from cAMP
T2 construct: host or cells: Sf9 cells
T2 sequence (Q14432 whole entry): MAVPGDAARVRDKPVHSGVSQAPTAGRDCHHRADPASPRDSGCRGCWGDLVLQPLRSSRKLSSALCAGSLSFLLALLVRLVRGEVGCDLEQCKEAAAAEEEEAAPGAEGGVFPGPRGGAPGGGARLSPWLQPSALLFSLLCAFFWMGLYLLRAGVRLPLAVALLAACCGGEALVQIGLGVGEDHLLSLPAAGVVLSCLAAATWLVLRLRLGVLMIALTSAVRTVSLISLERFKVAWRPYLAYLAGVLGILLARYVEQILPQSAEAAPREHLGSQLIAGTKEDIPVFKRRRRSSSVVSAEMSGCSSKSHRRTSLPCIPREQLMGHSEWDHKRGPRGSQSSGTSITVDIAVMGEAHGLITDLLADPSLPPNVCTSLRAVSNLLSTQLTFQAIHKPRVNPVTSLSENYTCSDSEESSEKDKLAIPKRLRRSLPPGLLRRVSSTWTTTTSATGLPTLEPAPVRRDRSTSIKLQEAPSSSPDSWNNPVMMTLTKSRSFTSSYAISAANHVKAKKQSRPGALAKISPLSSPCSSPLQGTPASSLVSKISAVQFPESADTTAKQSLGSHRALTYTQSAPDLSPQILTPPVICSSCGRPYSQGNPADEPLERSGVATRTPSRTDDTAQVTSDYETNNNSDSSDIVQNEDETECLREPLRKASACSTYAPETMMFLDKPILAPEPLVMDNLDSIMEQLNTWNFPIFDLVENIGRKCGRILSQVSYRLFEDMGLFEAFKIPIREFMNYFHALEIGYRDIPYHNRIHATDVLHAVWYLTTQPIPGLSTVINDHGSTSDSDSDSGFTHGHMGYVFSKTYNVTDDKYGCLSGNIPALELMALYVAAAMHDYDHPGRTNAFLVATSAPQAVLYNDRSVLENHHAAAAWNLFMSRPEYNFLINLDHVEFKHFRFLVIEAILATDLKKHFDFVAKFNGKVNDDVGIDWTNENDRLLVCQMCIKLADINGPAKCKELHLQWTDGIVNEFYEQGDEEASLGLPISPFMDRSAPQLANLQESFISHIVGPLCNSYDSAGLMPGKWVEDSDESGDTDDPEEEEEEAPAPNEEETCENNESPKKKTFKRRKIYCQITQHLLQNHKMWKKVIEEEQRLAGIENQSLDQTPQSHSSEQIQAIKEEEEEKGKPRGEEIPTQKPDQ
Description: Evaluation of the effects of compounds on the activity of the human phosphodiesterase-3A is quantified by measuring the formation of 5′AMP from cAMP using a human recombinant enzyme expressed in Sf9 cells.
The test compound, reference compound or water (control) are added to a buffer containing 40 mM Tris/HCl (pH 7.4) and 8 mM MgCl2, 450 nM cAMP and 0.25 μCi [^3H]cAMP.
Thereafter, the reaction is initiated by addition of the enzyme (about 1 U) and the mixture is incubated for 20 min at 22° C.
For basal control measurements, the enzyme is omitted from the reaction mixture.
Following incubation SPA beads are added. After 30 min at 22° C. under shaking, the amount of [^3H]5′AMP is quantified with a scintillation counter (Topcount, Packard).
The results are expressed as a percent inhibition of the control enzyme activity. The standard inhibitory reference compound is milrinone (CAS number 78415-72-2), which is tested in each experiment at several concentrations to obtain an inhibition curve from which its IC50 value is calculated.

[2] = biological target: T3, endogenous human glucagon-like peptide 1 receptor (GLP-1R) (Homo sapiens, UniProt P43220); experiment: EndoC cAMP Accumulation Assay; assay type: cell-based; settings: EndoC-βH1 human pancreatic β cell line; HTRF cAMP assay
T3 construct: endogenous human glucagon-like peptide 1 receptor (GLP-1R) in a pancreatic insulinoma cell line; host or cells: EndoC-βH1 human pancreatic β cell line
T3 sequence (P43220 24-463): as the sequence (P43220 24-463 L260F) above, with F237L counted along it
Procedure, shortened: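 Thawed EndoC-βH1 cells (3000 per well) were stimulated for 30 min at room temperature in HBSS/25 mM HEPES pH 7.4, 0.1% BSA and 0.5 mM IBMX. cAMP was measured by HTRF competitive immunoassay after 1 h. Responses were fitted by 4-parameter logistic as % activation relative to maximal GIP (82.5 nM), with basal cAMP as zero.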

Row | Structure (SMILES) | EC50 (human GLP-1R receptor) | IC50 [1] | EC50 [2]
1 | COc1cc(C(=O)O)cc2c1nc(CN1CCN(c3cccc4c3O[C@@](C)(c3ccc(Cl)cn3)O4)[C@@H]3COC[C@@H]31)n2C[C@@H]1CCCO1 (relative stereo) [Example 2a, 2-((4aR*,7aS*)-4-((R*)-2-(5-Chloropyridin-2-yl)-2-methylbenzo[d][1,3]dioxol-4-yl)hexahydrofuro[3,4-b]pyrazin-1(2H)-yl)methyl)-4-methoxy-1-(((S)-tetrahydrofuran-2-yl)methyl)-1H-benzo[d]imidazole-6-carboxylic acid] | 3.8 nM | > 100000 nM | 3.1 nM
2 | C[C@]1(c2ccc(Cl)cn2)Oc2cccc(N3CCN(Cc4nc5ccc(C(=O)O)cc5n4C[C@@H]4CCO4)[C@H]4COC[C@H]43)c2O1 (single isomer, unassigned) [Example 5b, 2-(((4aR*,7aS*)-4-((R*)-2-(5-Chloropyridin-2-yl)-2-methylbenzo[d][1,3]dioxol-4-yl)hexahydrofuro[3,4-b]pyrazin-1(2H)-yl)methyl)-1-(((S)-oxetan-2-yl)methyl)-1H-benzo[d]imidazole-6-carboxylic acid] | 2.2 nM | > 100000 nM | 9.5 nM
3 | C[C@]1(c2ccc(Cl)cc2F)Oc2cccc(N3CCN(Cc4nc5ccc(C(=O)O)cc5n4C[C@@H]4CCO4)[C@H]4COC[C@H]43)c2O1 (single isomer, unassigned) [Example 6a, 2-(((4aR*,7aS*)-4-((R*)-2-(4-Chloro-2-fluorophenyl)-2-methylbenzo[d][1,3]dioxol-4-yl)hexahydrofuro[3,4-b]pyrazin-1(2H)-yl)methyl)-1-(((S)-oxetan-2-yl)methyl)-1H-benzo[d]imidazole-6-carboxylic acid] | 1.5 nM | > 100000 nM | 0.92 nM
4 | C[C@]1(c2ccc(Cl)cn2)Oc2cccc(N3CCN(Cc4nc5ccc(C(=O)O)cc5n4C[C@@H]4CCCO4)[C@H]4COC[C@H]43)c2O1 (single isomer, unassigned) [Example 8a, 2-(((4aR*,7aS*)-4-((R*)-2-(5-Chloropyridin-2-yl)-2-methylbenzo[d][1,3]dioxol-4-yl)hexahydrofuro[3,4-b]pyrazin-1(2H)-yl)methyl)-1-(((S)-tetrahydrofuran-2-yl)methyl)-1H-benzo[d]imidazole-6-carboxylic acid] | 15 nM | > 100000 nM | 17 nM
5 | C[C@]1(c2ccc(Cl)cn2)Oc2cccc(N3CCN(Cc4nc5c(F)cc(C(=O)O)cc5n4C[C@@H]4CCO4)[C@H]4COC[C@H]43)c2O1 (single isomer, unassigned) [Example 9a, 2-(((4aR*,7aS*)-4-((R*)-2-(5-Chloropyridin-2-yl)-2-methylbenzo[d][1,3]dioxol-4-yl)hexahydrofuro[3,4-b]pyrazin-1(2H)-yl)methyl)-4-fluoro-1-(((S)-oxetan-2-yl)methyl)-1H-benzo[d]imidazole-6-carboxylic acid] | 1.5 nM | > 100000 nM | 3.9 nM
6 | C[C@]1(c2ccc(Cl)cn2)Oc2cccc(N3CCN(Cc4nc5c(F)cc(C(=O)O)cc5n4C[C@@H]4CCO4)[C@H]4COC[C@H]43)c2O1 (single isomer, unassigned) [Example 9d, 2-(((4aR*,7aS*)-4-((R*)-2-(5-Chloropyridin-2-yl)-2-methylbenzo[d][1,3]dioxol-4-yl)hexahydrofuro[3,4-b]pyrazin-1(2H)-yl)methyl)-4-fluoro-1-(((S)-oxetan-2-yl)methyl)-1H-benzo[d]imidazole-6-carboxylic acid] | 320 nM | > 100000 nM | 2100 nM

Further lines, results first:

Row | EC50 (human GLP-1R receptor) | IC50 [1] | EC50 [2] | Structure (SMILES)
7 | 3 nM | > 100000 nM | 3 nM | C[C@]1(c2ccc(Cl)cn2)Oc2cccc(N3CCN(Cc4nc5c(F)cc(C(=O)O)cc5n4CC4(CC#N)CC4)[C@H]4COC[C@H]43)c2O1 (single isomer, unassigned) [Example 21]
8 | 2.7 nM | > 100000 nM | 3.2 nM | C[C@]1(c2ccc(Cl)cn2)Oc2cccc(N3CCN(Cc4nc5c(F)cc(C(=O)O)cc5n4CC4(C#N)CC4)[C@H]4COC[C@H]43)c2O1 (single isomer, unassigned) [Example 22a]
9 | 1.8 nM | > 100000 nM | 5 nM | C[C@]1(c2ccc(Cl)cn2)Oc2cccc(N3CCN(Cc4nc5c(Cl)cc(C(=O)O)cc5n4CC4(C#N)CC4)[C@H]4COC[C@H]43)c2O1 (single isomer, unassigned) [Example 23a]
10 | 5.1 nM | > 100000 nM | 8 nM | C[C@]1(c2ccc(Cl)cn2)Oc2cccc(N3CCN(Cc4nc5ccc(C(=O)O)cc5n4CC4(CC#N)CC4)[C@H]4COC[C@H]43)c2O1 (single isomer, unassigned) [Example 25]
